Reference: PubChem BioAssay (NCI)
Where “and” joins values, the source holds several entries; their conditions need not be identical. Equal entries are not always repeated.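 Step 1: Grow cells in 96-well plates. Step 2: Expose to compound for 48 hours at 5 concentrations. Step 3: Interpolate endpoints linearly; if unreached, use highest concentration. The concentration for 50% growth inhibition is given as GI50. TGI marks complete inhibition of growth.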

What was measured:
Test in all cases: inhibition of tumour cell growth, NCI panel, 48 h
A549 NSCLC = system: A549 NSCLC
ACHN renal = system: ACHN renal
DU-145 prostate = system: DU-145 prostate
HCT-116 colon = system: HCT-116 colon
K-562 leukemia = system: K-562 leukemia
MDA-MB-231 breast = system: MDA-MB-231 breast
NCI-H460 lung = system: NCI-H460 lung
NCI/ADR-RES ovarian = system: NCI/ADR-RES ovarian
RPMI-8226 leukemia = system: RPMI-8226 leukemia
RXF 393 renal = system: RXF 393 renal
SF-268 CNS = system: SF-268 CNS
SF-295 CNS = system: SF-295 CNS
SK-MEL-28 melanoma = system: SK-MEL-28 melanoma
SK-MEL-5 melanoma = system: SK-MEL-5 melanoma
MCF7 breast = system: MCF7 breast

Compound	TGI (A549 NSCLC)	TGI (ACHN renal)	TGI (DU-145 prostate)	TGI (HCT-116 colon)	TGI (K-562 leukemia)	TGI (MDA-MB-231 breast)	TGI (NCI-H460 lung)	TGI (NCI/ADR-RES ovarian)	TGI (RPMI-8226 leukemia)	TGI (RXF 393 renal)	TGI (SF-268 CNS)	TGI (SF-295 CNS)	TGI (SK-MEL-28 melanoma)	TGI (SK-MEL-5 melanoma)	GI50 (A549 NSCLC)	GI50 (MCF7 breast)	TGI (MCF7 breast)	GI50 (MDA-MB-231 breast)	GI50 (NCI-H460 lung)
N#CSCC(Cl)=CCl (mixture of isomers)	> 100 µM	> 100 µM	> 100 µM	> 100 µM	> 100 µM	> 100 µM	> 100 µM	> 100 µM	> 100 µM	> 100 µM	> 100 µM	> 100 µM	> 100 µM	> 100 µM	–	–	–	–	–
CCOC(=O)Nc1cc2c(c(N)n1)N=C(c1ccc(OC)cc1)CN2	2.34 µM	35.7 µM	33.3 µM	1.31 µM	1.32 µM	0.392 µM and 0.0787 µM	0.256 µM	–	–	–	> 100 µM	–	–	0.141 µM	0.0204 µM	0.0264 µM	> 100 µM	0.00386 µM	0.012 µM
CC(=O)SCCC(NC(=S)Nc1ccccc1)P(=O)(Oc1ccccc1)Oc1ccccc1 (configuration not stated)	> 100 µM	> 100 µM	> 100 µM	> 100 µM	> 100 µM	> 100 µM	> 100 µM	> 100 µM	–	> 100 µM	> 100 µM	> 100 µM	> 100 µM	–	–	–	> 100 µM	–	–
OCC12C=CC(C1)c1ccccc12 (configuration not stated)	> 100 µM	> 100 µM	–	> 100 µM	> 100 µM	–	> 100 µM	–	> 100 µM	–	> 100 µM	> 100 µM	> 100 µM	> 100 µM	–	–	–	–	–
O=S(Cc1ccccc1)c1nc2ccccc2nc1-c1cccs1 (configuration not stated)	30.7 µM	26.9 µM	–	23.3 µM	> 100 µM	–	45.4 µM	–	68 µM	–	51.4 µM	52.9 µM	23.9 µM	23.7 µM	–	–	–	–	–
O=[N+]([O-])c1ccc(CSc2nncc3[nH]cnc23)cc1	> 100 µM	> 100 µM	–	> 100 µM	> 100 µM	> 100 µM	–	> 100 µM	> 100 µM	–	–	> 100 µM	> 100 µM	> 100 µM	–	–	> 100 µM	–	–
O=C1/C(=C/C=C/c2ccccc2)CCC1CNc1ccccc1 (configuration not stated)	> 100 µM	> 100 µM	> 100 µM	> 50 µM	> 35.6 µM	51.7 µM	> 100 µM	> 100 µM	–	38.1 µM	> 100 µM	> 100 µM	> 100 µM	> 100 µM	–	–	32.7 µM	–	–
O=C1CS(=O)(=O)C(c2cccc(Oc3ccccc3)c2)N1c1ccc(Cl)cc1 (configuration not stated)	> 100 µM	60.5 µM	> 100 µM	22.6 µM	63 µM	> 100 µM	35.8 µM	> 100 µM	–	43 µM	> 100 µM	> 100 µM	> 100 µM	26.3 µM	–	–	31.9 µM	–	–
O=C(CSc1nnc(-c2ccccn2)s1)N/N=C/c1ccccc1	> 100 µM	> 100 µM	> 100 µM	> 100 µM	> 100 µM	> 100 µM	> 100 µM	> 100 µM	–	–	> 100 µM	> 100 µM	> 100 µM	> 100 µM	–	–	> 100 µM	–	–
CC1(C)OCN(c2ccc(N3CCOCC3)cc2)Cn2c1nc1ccccc12	> 100 µM	> 100 µM	–	> 100 µM	> 100 µM	–	> 100 µM	–	86.6 µM	> 100 µM	> 100 µM	> 100 µM	> 100 µM	–	–	–	–	–	–
CCOC(=O)c1ccc(N=C/C=C(\Nc2ccc(C(=O)OCC)cc2)C23CC4CC(CC(C4)C2)C3)cc1	> 100 µM	> 100 µM	> 100 µM	> 100 µM	> 100 µM	> 100 µM	> 100 µM	> 100 µM	–	> 100 µM	> 100 µM	> 100 µM	> 100 µM	> 100 µM	–	–	> 100 µM	–	–
COC(=O)[C@@H]1C[C@H]2OC(=O)CC[C@]2(C)O[C@H]1[C@H]1O[C@@](C)(O)CCC[C@H]1C	> 50 µM	> 50 µM	> 50 µM	> 50 µM	> 50 µM	> 50 µM	> 50 µM	–	> 50 µM	> 50 µM	> 50 µM	> 50 µM	> 50 µM	> 50 µM	–	–	> 50 µM	–	–
CN(C)/C=C/C(=CC=[N+](C)C)/C=C/N(C)C	> 100 µM	> 100 µM	–	> 100 µM	> 100 µM	–	> 100 µM	–	> 100 µM	> 100 µM	> 100 µM	> 100 µM	> 100 µM	> 100 µM	–	–	–	–	–
CC(C)(C)C1=C(Br)C(C(C)(C)C)OP1(=O)O (configuration not stated)	> 100 µM	> 100 µM	> 100 µM	> 100 µM	> 100 µM	–	> 100 µM	> 100 µM	–	–	> 100 µM	> 100 µM	> 100 µM	> 100 µM	–	–	> 100 µM	–	–
COC(=O)[C@@H]1C=C[C@H](OC2OC(COC(C)=O)C(OC(C)=O)C(OC(C)=O)C2OC(C)=O)n2c(=O)n(-c3ccccc3)c(=O)n21 (some centres not stated)	30.8 µM	3.17 µM	15.7 µM	3.82 µM	4.02 µM	8.42 µM	35.8 µM	31.4 µM	6.05 µM	4.12 µM	8.17 µM	15.5 µM	5.59 µM	7 µM	–	–	–	–	–
Cc1ccc(C(=O)O)c(/C=C2\Cc3ccc(C)cc3C2=O)c1	> 100 µM	> 100 µM	> 100 µM	> 100 µM	> 100 µM	–	> 100 µM	> 100 µM	53.3 µM	> 100 µM	> 100 µM	> 100 µM	> 100 µM	> 100 µM	–	–	> 100 µM	–	–
CCN1C[C@]2(C)CC[C@H](O)C34C1C(C[C@@H]32)[C@@]1(O)CC[C@H]2C[C@@H]4[C@@H]1[C@H]2O	> 100 µM	> 100 µM	–	> 100 µM	–	–	> 100 µM	–	> 100 µM	> 100 µM	> 100 µM	> 100 µM	> 100 µM	> 100 µM	–	–	–	–	–
CC12C=CC(C)(C3C(=O)C4C(C(=O)C31)C1(C)C=CC4(C)S1=O)S2=O (configuration not stated)	> 100 µM	> 100 µM	> 100 µM	–	–	> 100 µM	> 100 µM	> 100 µM	–	> 100 µM	> 100 µM	> 100 µM	–	> 100 µM	–	–	–	–	–
